Assay results taken from US20240325404A1, “TREATMENT OF INFLAMMATORY DISEASES” (Galapagos NV, priority 2021, published 2024).
“Also recorded” adds a separate entry of the source.

Experiments:
[1] = test system: IFN-α/pSTAT1 pathway; test: MDZ DDI study ex vivo IFN-α/pSTAT1 in CD4+ T-cells; conditions: 150 mg q.d., Day 6, ex vivo stimulation of whole blood
[2] = test system: IL2/pSTAT5 pathway; test: MDZ DDI study ex vivo IL2/pSTAT5 in CD4+ T-cells; conditions: 150 mg q.d., Day 6, ex vivo stimulation of whole blood
[3] = test system: IFN-α/pSTAT3 pathway; test: MDZ DDI study ex vivo IFN-α/pSTAT3 in CD4+ T-cells; conditions: 150 mg q.d., Day 6, ex vivo stimulation of whole blood
[4] = test system: IL6/pSTAT1 pathway; test: MDZ DDI study ex vivo IL6/pSTAT1 in CD4+ T-cells; conditions: 150 mg q.d., Day 6, ex vivo stimulation of whole blood
[5] = test system: IL6/pSTAT3 pathway; test: MDZ DDI study ex vivo IL6/pSTAT3 in CD4+ T-cells; conditions: 150 mg q.d., Day 6, ex vivo stimulation of whole blood
[6] = target: CYP3A4 (Homo sapiens, UniProt P08684); test: clinical; conditions: in vivo
Experimental: On Days 1 and 7, single dose of 2 mg MDZ as commercially available liquid formulation, containing 2 mg/mL MDZ administered orally under fed conditions.

CYP3A4, sequence (P08684 whole entry): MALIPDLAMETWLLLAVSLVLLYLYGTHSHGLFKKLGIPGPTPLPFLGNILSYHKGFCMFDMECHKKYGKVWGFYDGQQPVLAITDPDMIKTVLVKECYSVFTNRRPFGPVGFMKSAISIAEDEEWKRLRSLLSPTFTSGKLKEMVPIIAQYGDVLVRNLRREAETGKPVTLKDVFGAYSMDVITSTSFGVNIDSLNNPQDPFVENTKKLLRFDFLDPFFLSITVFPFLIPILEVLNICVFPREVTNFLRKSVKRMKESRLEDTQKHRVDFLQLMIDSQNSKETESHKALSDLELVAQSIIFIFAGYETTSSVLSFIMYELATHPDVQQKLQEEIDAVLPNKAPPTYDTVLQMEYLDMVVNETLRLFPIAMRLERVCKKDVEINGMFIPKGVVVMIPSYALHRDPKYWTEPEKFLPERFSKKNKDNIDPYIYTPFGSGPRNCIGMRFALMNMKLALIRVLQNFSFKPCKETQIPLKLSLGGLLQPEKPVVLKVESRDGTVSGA

Row | Compound | effect on IFN-α/pSTAT1 pathway [1] | effect on IL2/pSTAT5 pathway [2] | effect on IFN-α/pSTAT3 pathway [3] | effect on IL6/pSTAT1 pathway [4] | effect on IL6/pSTAT3 pathway [5] | AUC(0-inf) [6] [ng·h/mL] | Cmax [6] [ng/mL] | MDZ AUC0-∞ LS Geometric Mean Ratio (90% CI) [6] | AUC(0-inf) ([6]; po, 2 mg) [ng·h/mL] | Cmax ([6]; po, 2 mg) [ng/mL]
1 | Cc1cc(C#N)ncc1Oc1cc(Nc2ccc(N3CCOCC3)nn2)c2ncn(C)c2n1 [Compound 1, 4-methyl-5-[3-methyl-7-[(6-morpholin-4-ylpyridazin-3-yl)amino]imidazo[4,5-b]pyridin-5-yl]oxypyridine-2-carbonitrile] | concentration-dependent inhibition | Day 1 and Day 6 values were similar; also recorded: no inhibition and no concentration-dependent effect | concentration-dependent inhibition | concentration-dependent inhibition | Day 1 and Day 6 values were similar; also recorded: no inhibition and no concentration-dependent effect | – | – | – | – | –
2 | Cc1ncc2n1-c1ccc(Cl)cc1C(c1ccccc1F)=NC2 [MDZ, midazolam] | – | – | – | – | – | 27.9 | 6.24 | 121 (109; 133) % | 23.5 | 5.95
